Each structure is given as a SMILES string. Where two headings read alike, the source gives them in different places.

In patent US12559474B2, “Triazine derivatives having virus replication inhibitory activity and pharmaceutical composition comprising the same” (priority 2021, dated 2026) one finds EC50 and IC50 data, which are given here for five compounds.

In one assay the test system is SARS-CoV-2. Put plainly: microbe, parasite or virus in culture. The settings on record: Severe acute respiratory syndrome coronavirus 2, VeroE6/TMPRSS2, 72 h, 50% SARS-CoV-2 infected cell death inhibitory concentration, VeroE6/TMPRSS2 cells, 3 days culture. The assay is classed as cell-based.
Another assay has as its target SARS-CoV-2 3CL protease (Severe acute respiratory syndrome coronavirus 2, UniProt P0DTD1). The assay can be described thus: biochemical. The settings on record: 50% SARS-CoV-2 3CL protease inhibitory concentration, read-out: IC50.

As usually defined, the EC50 is the concentration that produces a half-maximal response. The low end stands for greater potency, the high end for weaker potency. A word on the IC50: it is the concentration that gives 50% inhibition. For the compound `CNc1cncc(-n2c(=O)nc(Nc3cc4cn(C)nc4cc3Cl)n(Cc3cc(F)c(F)c(Cl)c3)c2=O)c1` [II-0601], the EC50 in the assay on SARS-CoV-2 (class symbols) was under 1000 nM. Besides, the IC50 at SARS-CoV-2 3CL protease (given as class symbols) was under 100 nM.

As for `CNc1cncc(-n2c(=O)nc(Nc3cc4cn(C)nc4cc3Cl)n(Cc3cc(F)c(F)c(F)c3)c2=O)c1` [II-0602], in the assay with SARS-CoV-2 (class symbols), the EC50 is under 1000 nM. Also, the IC50 at SARS-CoV-2 3CL protease (given as class symbols) is under 100 nM.

`C#Cc1cncc(-n2c(=O)nc(Nc3ccc(OC)cc3)n(Cc3cc(F)c(F)c(F)c3)c2=O)c1` [II-0604] registered an EC50 in the assay on SARS-CoV-2 (CellTiter-Glo 2.0) of 9760 nM. The IC50 at SARS-CoV-2 3CL protease (RapidFire MS) amounted to 470 nM.

As to `Cn1cc2cc(Nc3nc(=O)n(-c4cncc(Cl)c4)c(=O)n3Cc3ccc(F)c(C#N)c3)ccc2n1` [II-0608], the EC50 in the assay on SARS-CoV-2 (CellTiter-Glo 2.0) was 487 nM. At SARS-CoV-2 3CL protease (RapidFire MS), the IC50 came out at 19 nM.

Take `Cn1cc2cc(Nc3nc(=O)n(-c4cncc(Cl)c4)c(=O)n3Cc3cc(F)c(F)c(F)c3)ccc2n1` [II-0609]: in the assay on SARS-CoV-2 (CellTiter-Glo 2.0), the EC50 was 2040 nM. At SARS-CoV-2 3CL protease (RapidFire MS), the IC50 amounted to 120 nM.
